Measured values from patent EP1296672B2, “STABLE PHARMACEUTICAL PRODUCT AND FORMULATION” (LEK Pharmaceuticals d.d., priority 2000, dated 2001).

Experiments:
[1] = pH of unstabilized pravastatin Na crystals exposed to air atmosphere in different packagings; format: physicochemical; details: for pH: exposed to air, pH measured in 5% aqueous solution
Experimental: Crystals of pravastatin Na were prepared as follows: […] The resulting clear yellow solution was cooled to 8°C and allowed to stand overnight. Formed radiating clusters of thin, long needle-like crystals were filtered, washed with ethyl acetate (20 ml) and dried. […]

[2] = pH of pravastatin Na crystals exposed to pure carbon dioxide in different packagings; format: physicochemical; details: unstabilized pravastatin Na, carbon dioxide atmosphere, 5% aqueous solution
Experimental: Therefore the samples, in case of experiments where the correspondingly stabilised pravastatin was used, were exposed to the atmosphere of pure carbon dioxide, so the changes in pH become evident in a relatively short period of time such as a day or two.
The crystals were formed by addition of 400 ml of ethyl acetate containing 2% of water.

[3] = Experimental: In Fig. 1a, a HPLC chromatogram of a freshly perpared sample of pravastating Na is shown. The same pravastating Na was exposed to carbon dioxide atmosphere for one hour, and then a further HPLC chromatogram was prepared (Fig. 1b).

Compound: CC[C@H](C)C(=O)O[C@H]1C[C@H](O)C=C2C=C[C@H](C)[C@H](CC[C@@H](O)C[C@@H](O)CC(=O)[O-])[C@H]21.[Na+] [1a, pravastatin Na]
- pH ([1]; time 0 hours): 8.3
- pH ([1]; time 24 hours): 7.6

Compound: CC[C@H](C)C(=O)O[C@H]1C[C@H](O)C=C2C=C[C@H](C)[C@H](CC[C@@H](O)C[C@@H](O)CC(=O)[O-])[C@H]21.[Na+] [1b, pravastatin Na]
- pH ([1]; time 0 hours): 8.3
- pH ([1]; time 24 hours): 7.9

Compound: CC[C@H](C)C(=O)O[C@H]1C[C@H](O)C=C2C=C[C@H](C)[C@H](CC[C@@H](O)C[C@@H](O)CC(=O)[O-])[C@H]21.[Na+] [2a, pravastatin Na]
- pH ([2]; time 0 h): 7.60
- pH ([2]; time 1 h): 7.30
- pH ([2]; time 5 h): 7.14
- pH ([2]; time 70 h): 7.14

Compound: CC[C@H](C)C(=O)O[C@H]1C[C@H](O)C=C2C=C[C@H](C)[C@H](CC[C@@H](O)C[C@@H](O)CC(=O)[O-])[C@H]21.[Na+] [pravastatin Na]
- degradation products (HPLC peaks) [3]: two different peaks in front of and three peaks after the peak of pravastatin Na appear
- pH of crystals ([1]; after one day): 7.6
- pH of crystals ([1]; freshly prepared crystals): 8.3
